# Article PMC8721105, “Novel Trypanocidal Inhibitors that Block Glycosome Biogenesis by Targeting PEX3–PEX19 Interaction” (Frontiers in Cell and Developmental Biology, 2021)
# Values joined by “and” are separate entries in the source; they are usually repeats but may differ in a detail not shown here. Equal values may be shown once. “Also recorded” adds a separate entry of the source. Read-outs that look alike come from different tables or passages of the source.
# Tests used:
# [1] = biological target: TbPEX3–TbPEX19 interaction (Trypanosoma brucei brucei, UniProt Q383Q3); assay: AlphaScreen TbPEX3–TbPEX19 inhibitor screening and dose response; format: binding
# Description: The above solutions were prepared in the reaction buffer [0.5% BSA v/v, 0.05% Tween 80 v/v, 0.2 mM DTT, PBS (pH7.4)] on the day of assay, diluting the compounds from 1 mM stocks in DMSO. Compounds were incubated with the proteins for 30 min at room temperature (RT). Five microliters of AlphaScreen Nickel-chelate acceptor beads (cat. no. 6760619C, PerkinElmer®) and AlphaScreen Glutathione donor beads (cat. no. 6765300, PerkinElmer®) were distributed to the mixture consecutively, with a 15-min interval. The complete 25-μl reaction solutions were incubated for 45 min at RT in the dark, and Alpha signals were captured with Cytation 5 plate reader (BioTek®) with the gain value set at 180. Schematic representation of the experiment setup of the high-throughput screening assays was prepared with BioRender.com.
# Following initial hit selection, 10 μM of drugs were tested with GST-His (54 nM) and TbPEX19/TbPEX3 (5 nM) in smaller scale, and the level of signal was normalized (in %) and compared.
# GST-TbPEX3d44 = assay: NMR saturation transfer difference (STD) with GST-TbPEX3; format: binding, Trypanosoma brucei; settings: for STD NMR effect with GST-TbPEX3: 10 μM protein, 300 µM ligand; for Target protein (NMR analysis): protein assigned as target, GST-TbPEX3, TbPEX19-His and GST-His tested
# Description: (§1) NMR saturation transfer difference (STD) experiments ([Mayer and Meyer, 1999]) were carried out on a Bruker AVIII 600-MHz spectrometer equipped with a cryoprobe and a SampleJet auto sampler. One-dimensional (1D) and STD spectra were acquired at 298 K. Compounds were dissolved in DMSO-d6 to a final concentration of 50 mM. STD experiments with GST-TbPEX3, TbPEX19-His, and GST-His were performed in PBS (pH 7.4), 10% D2O at a protein concentration of 10 μM, and a ligand concentration of 300 µM. Saturation time and interscan delay within STD experiments were set to 2 and 2.5 s, respectively.
# GST-His = biological target: T1, GST-His (Schistosoma japonicum, UniProt P08515); assay: NMR saturation transfer difference (STD) with GST-His control; format: binding; settings: 10 μM protein, 300 µM ligand
# T1 construct: made in house; host or cells: E. coli BL21(DE3)
# Description: as §1
# T. brucei BSF427 = assay: T. brucei cell viability, resazurin-based assay; parameters: species or system Trypanosoma brucei; settings: BSF427, 3 days of incubation, resazurin, read-out: T. brucei toxicity (EC50)
# Description: (§2) BSF strain Lister 427 (termed hereafter as BSF427) and cell line 90-13 (stably expressing Tet repressor) were used in this study. BSF cells were grown in HMI-11 medium and maintained in logarithmic phase [below 2 × 10^6 cells/ml as described in [Kalel et al. (2019)]]. Genomically integrated stable transfections were performed with NotI-linearized plasmid constructs (pGN1-TbPEX11), which integrate into the spacer region of the ribosomal RNA repeat locus in the genome of cell line 90-13, and the clones were selected using blasticidin as described previously ([Kalel et al., 2015]). Expression of TbPEX11-GFP was confirmed with fluorescence microscopy following induction tests (data not shown) with a serial dilution of tetracycline, and minimal concentration (5 ng/ml) of tetracycline was used to achieve expression of the protein in more than 80% of the cells.
# T. brucei BSF427 and compound dilutions were mixed in 1 : 1 (v/v) ratio to total volume of 200 μl, to reach final concentrations of 2 × 10^3 cells/ml and 0.19–100 μM of inhibitors, in quadruplicates in 96-well plates. Culture medium with no cells was used as negative control and cultures without presence of compounds as positive control representing normal rate of cell growth. Cells were grown at 37°C in an incubator with humidified air containing 5% CO2 for 3 days. Cell viabilities were measured quantitatively using resazurin dye, by adding 25-µl resazurin (0.1 mg/ml in HBSS) to each well, and the mixture incubated for 6 h in the incubator. Fluorescence emission was detected at 570 and 585 nm after excitation at 530 nm, and fluorescence at 570 nm was subtracted from 585 nm. The inhibition curves were fitted with normalized fluorescence signal (in percentage) against concentration of compounds in Log10 scale using GraphPad Prism, and best fit was used for EC50 estimation. Chemical structures were drawn with ChemDraw 20.0.
# [2] = system: T. brucei bloodstream form parasites; assay: Immunofluorescence microscopy of glycosomal aldolase localization; format: cell-based, Trypanosoma brucei; settings: 24 h treatment; for Mislocalization (% of No. of cells) of aldolase: cultures with 50% of the growth rate of DMSO control
# Description: BSF 90-13 cells with genomically integrated PEX11-GFP were induced with 5 ng/ml of tetracycline and cultured overnight to initiate stable expression of PEX11-GFP. BSF427- and PEX11-GFP–expressing cells were treated for 24 h with 100 μM, 50 and 25 μM of each of the inhibitor, and DMSO was used as control. Compound-treated cultures with growth rates of about 50% compared to the DMSO control were harvested and stained for immunofluorescence and statistical analysis. Cells were fixed with 4% paraformaldehyde in PBS containing 250 mM sucrose for 20 min. Fixed cells were immobilized on adhesive slide (StarFrost®) pre-coated with 10% (v/v) of poly-L-lysine (Sigma-Aldrich®) in water after 1-h incubation at RT. Cells were permeabilized with 0.1% (v/v) Triton X-100 in PBS (pH7.4) for 15 min and blocked in buffer D [PBS supplemented with 1% (w/v) BSA and 0.25% (v/v) Tween 20] for 1 h. Anti-TbAldolase primary antibody was used at 1:500 dilution in buffer D for 1.5 h incubation. After five washes in PBS for 30 min, samples were treated with Goat anti-rabbit secondary antibody (1:200, v/v, Alexa Fluor™ 594). Samples were washed, dried, and mounted with Mowiol containing 4′,6-diamidino-2-phenylindole (DAPI). Immuno-stained cells were visualized with Zeiss Elyra microscopy. Pictures of stack 3 (of 5), rotation 1 (of 3), and phase 5 (of 5) were chosen for all control and compound-treated samples.
# [3] = system: PEX11-GFP–expressing BSF cells; assay: Immunofluorescence of PEX11-GFP–expressing BSF cells; format: cell-based, Trypanosoma brucei; settings: 24 h treatment
# Description: as §2
# BSF 90-13 cells with genomically integrated PEX11-GFP were induced with 5 ng/ml of tetracycline and cultured overnight to initiate stable expression of PEX11-GFP. BSF427- and PEX11-GFP–expressing cells were treated for 24 h with 100 μM, 50 and 25 μM of each of the inhibitor, and DMSO was used as control. Compound-treated cultures with growth rates of about 50% compared to the DMSO control were harvested and stained for immunofluorescence and statistical analysis. […]
# [4] = ref ChemBridge, cited from earlier work; for Hacc (hydrogen bond acceptor) / Hdon (hydrogen bond donor): provided by the compound library supplier; for LogSw: supplier data
# [5] = Cytotoxicity test on HepG2 cells; settings: human, HepG2 cells, Human cell cytotoxicity (EC50), HepG2, serial dilutions of up to 200 µM
# BSF427 cells = assay: Digitonin fractionation of compound-treated BSF cells; settings: 24 h treatment; 0.025 μg of digitonin/μg of total protein
# Description: Pellets were resuspended in 420 μl of homogenization buffer and distributed evenly into four tubes each with 100 μl (4 μg protein). […] The mixture was incubated for 2 min at 37°C, vortexed for 10 s, and centrifuged (16,000 g) at 4°C for 15 min. 100 μl from the supernatant (solubilized fractions) was taken for Western blot analysis. Remaining pellet fractions were washed by adding homogenization buffer up to 125 μl and centrifuged again, supernatants were discarded, and pellets were resuspended in 100 μl for Western blotting.
# TbPEX19-His = assay: NMR saturation transfer difference (STD) with TbPEX19-His; format: binding, Trypanosoma brucei; settings: 10 μM protein, 300 µM ligand
# Description: as §1
# HepG2 cells = assay: Cytotoxicity test on HepG2 cells; settings: read-out: Human cell cytotoxicity (EC50); HepG2, serial dilutions of up to 200 µM
# Biotin-TbPEX5pep = assay: ELISA binding of GST-TbPEX14 and Biotin-TbPEX5pep; parameters: species or system Trypanosoma brucei; settings: read-out: KD of GST-TbPEX14 (residue1-84) and Biotin-TbPEX5pep
# Description: ELISA with TbPEX14–TbPEX5 was used as an independent assay to confirm compound specificity by examining the compound activity on TbPEX14–TbPEX5 interaction. TbPEX14–TbPEX5 assays were performed similarly with following changes. GST-TbPEX14_1-84 was coated, and biotinylated TbPEX5 peptide (Biotin-Aca-Aca-[…]) was used as analyte to a final concentration of 500 nM. Bound PEX5 was detected using streptavidin-conjugated alkaline phosphatase [1:2,000 v/v in PBS, 0.05% v/v Tween 20 (pH 7.4), buffer D, Promega] and p-nitrophenylphosphate (PNPP, Thermo Fisher Scientific) as a substrate, reactions stopped with 3 M NaOH and absorbance read at 405 nm.
# T1 sequence (P08515 whole entry): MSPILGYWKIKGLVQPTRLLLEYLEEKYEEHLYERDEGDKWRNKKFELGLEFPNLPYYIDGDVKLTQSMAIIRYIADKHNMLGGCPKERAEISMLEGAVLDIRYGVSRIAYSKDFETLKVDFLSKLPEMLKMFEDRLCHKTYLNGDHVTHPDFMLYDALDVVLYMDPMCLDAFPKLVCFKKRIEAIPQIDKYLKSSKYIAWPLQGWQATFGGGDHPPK
# Sequence of TbPEX3–TbPEX19 interaction (Q383Q3 entry or part of it, other chains not shown): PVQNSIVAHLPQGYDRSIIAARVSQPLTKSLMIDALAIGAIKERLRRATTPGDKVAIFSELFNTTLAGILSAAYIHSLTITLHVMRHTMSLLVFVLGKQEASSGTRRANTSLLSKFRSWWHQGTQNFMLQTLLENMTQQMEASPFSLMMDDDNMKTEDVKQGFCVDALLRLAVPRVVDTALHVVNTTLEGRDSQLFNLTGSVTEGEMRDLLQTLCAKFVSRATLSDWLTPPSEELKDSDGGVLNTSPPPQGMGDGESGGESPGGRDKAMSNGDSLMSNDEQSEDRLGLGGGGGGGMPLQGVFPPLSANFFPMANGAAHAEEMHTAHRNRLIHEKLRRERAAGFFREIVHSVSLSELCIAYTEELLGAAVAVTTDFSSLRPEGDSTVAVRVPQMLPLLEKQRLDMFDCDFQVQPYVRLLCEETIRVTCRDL
Molecule,IC50 [1],STD NMR effect with GST-TbPEX3 (GST-TbPEX3d44),Target protein (NMR analysis) (GST-TbPEX3d44),STD NMR effect with GST-His control (GST-His),EC50 (T. brucei BSF427),"EC50 (T. brucei BSF427; Trypanosoma brucei, 72 h)",Aldolase labeling phenotype (in words) [2],Mislocalization (% of No. of cells) of aldolase [2],PEX11-GFP and matrix protein localization (in words) [3],Hacc (hydrogen bond acceptor) [4],Hdon (hydrogen bond donor) [4],LogSw [4],EC50 [5],"Release of glycosomal matrix proteins (HK, gGAPDH) on digitonin fractionation (in words) (BSF427 cells)",STD NMR effect with TbPEX19-His (TbPEX19-His),EC50 (HepG2 cells),Kd (Biotin-TbPEX5pep)
"COCC1CCCN(S(=O)(=O)N2CCCN(Cc3cccc(F)c3)CC2)C1 (centres unmarked) [Compound 2, 1-(3-fluorobenzyl)-4-{[3-(methoxymethyl)piperidin-1-yl]sulfonyl}-1,4-diazepane]",37.5 µM,significant STD effects; also recorded: strong STD signal,TbPEX3,not to GST-His; also recorded: not with TbPEX19 or GST,27 µM,26.9 µM,mislocalization of aldolase to the cytosol,~21% and 21.2%,partly mislocalized to cytosol,4,0,-1.59,> 200 µM,mislocalization of the matrix protein into cytosol,–,–,–
"CCn1c2c(c3cc(C(=O)N4CCc5[nH]cnc5C4c4cccnc4)ccc31)CCCC2=O (centres unmarked) [Compound 3, 9-ethyl-6-[(4-pyridin-3-yl-1,4,6,7-tetrahydro-5H-imidazo[4,5-c]pyridin-5-yl)carbonyl]-2,3,4,9-tetrahydro-1H-carbazol-1-one]",14.3 µM,strong line-broadening,–,weak line-broadening,–,38 µM,partial mislocalization of aldolase to the cytosol,~27% and 27.5%,mislocalization of both PEX11 and matrix proteins,4,1,-1.77,84.4 µM,mislocalization of the matrix protein into cytosol,notable STD signal,84 µM,–
"Cn1ccnc1CNCCOc1cccc2cccnc12 [Compound 4, N-[(1-methyl-1H-imidazol-2-yl)methyl]-2-(quinolin-8-yloxy)ethanamine]",0.5 µM,significant STD effects; also recorded: strong STD signal,TbPEX3,not to GST-His; also recorded: not with TbPEX19 or GST,71 µM,70.7 µM,patches of stained aldolase,~14% and 14.3% and ~15%,–,4,1,-1.26,> 200 µM,–,–,–,–
"GST-TbPEX14: GST-tagged TbPEX14 residues 1-84 (protein, left off: GST, end not stated, kept) MSLLLSGVVDDGKSKPEVEHTHSEREKRVSNAVEFLLDSRVRRTPTSSKVHFLKSKGLSAEEICEAFTKVGQPKTLNEIKRILS",–,–,–,–,–,–,–,–,–,–,–,–,–,–,–,–,0.52 ± 0.13 µM
